Legend:
[1] = In-vitro drug release, Franz diffusion cell with dialysis membrane; type: physicochemical; conditions: in around 10 hours
Procedure: The % drug release from CLCAE and CLAA were measured through Franz diffusion cell using sigma dialysis membrane and the release rate was compared with AA and CAE. 1 mL sample (100 mg/mL) was kept on one side, while the other part of the membrane was filled with the acidic buffer pH 1.2 (200 mL) dissolution media for two hours. It was then replaced with phosphate buffer pH 7.2 (2–24 hours) with 0.25% w/v sodium lauryl sulphate as two separate media to simulate the stomach and intestinal conditions. The media were sustained at the temperature of 37°C on a magnetic stirrer. A 5 mL sample was withdrawn with the specific intervals and the condition of the sink was kept constant by refilling the same volume of media. Samples were analysed and compared using RP-HPLC at 210 nm. To assess the drug release strategy from the optimised CLAA, the data were fitted to various in vitro kinetic release models like Korsmeyer-Peppas, Higuchi, Zero and First Order models. ^, [36]

[2] = In-vitro antioxidant activity (DPPH inhibition); type: biochemical; conditions: at 50 μg/mL, n ≥ 3
Procedure: The prepared formulations' and AA's abilities to neutralise free radicals were determined in vitro and compared with standard ascorbic acid. In this method, free radical DPPH (2,2-diphenyl-1-picrylhydrazyl) was selected as described by Jamuna S. et al. 1.5 mL of 0.1mM free radial DPPH was treated with 3.5mL of 10 to 50 μg/mL concentrated methanolic solution of AA, CAE, optimised CLCAE, and CLAA. The absorbance of all the samples was measured at 518 nm through ELISA plate reader (version AM-2100, USA). The percentage of DPPH inhibition was measured through the formula. %Inhibition of DPPH=Absorptioncontrol−Absorptionsample/Absorptioncontrol×100

[3] = Ex vivo drug permeation, non-everted gut sac; type: in vitro ADME, rats; conditions: throughout 8 hours, non-everted rat intestinal sac
Procedure: The drug intestinal permeation studies of both the optimised formulations were determined using non-everted gut sac procedure. ^, [40] The rats were sacrificed and small intestine was treated with oxygenated saline. The intestine was split into […] sacs that were 8 cm long and loaded with optimised CLCAE and CLAA (~100 mg AA). The thread was used to bind the sac's ends and located in a conical flask filled with ringer’s solution of pH 9 (10 ml). 37°C temperature was kept constant in a water bath shaker at 75 rpm with 5% CO 2 aeration. Every 20 min, for a maximum of 8 h, the samples were removed and substituted with the fresh media. RP-HPLC was used to analyse the screened sample.

[4] = Oral bioavailability study, AA in rat serum; type: in vivo, wistar rats
Procedure: The sum of drug availability after oral intake of AA, CLCAE, and CLAA was performed on three groups of 150-200g wistar rats (n=6). Prior to the procedure, the animals underwent an overnight fast with unlimited access to water. Group I was treated with a single dose of AA (100 mg/kg,p.o.) whereas group II, and III animals received single dose of optimised CLCAE and CLAA (~100 mg/k.g AA, p.o.), respectively. After the dosing, the animals were partially anesthetised using […], from the retro-orbital plexus 1 mL of blood samples were collected in centrifuge tubes at a predetermined time of up to 8 h. To isolate the contents, the serum sample was spun up at 3000 rpm for 10 min. The AA was quantified by RP-HPLC.
Initially, the mixture of 1 mL serum and 5 mL methanol were taken in a volumetric flask at room temperature. The sample was properly mixed before being heated for 30 min at 55°C. After that, a 10 mL flask was made up with methanol and centrifugation for 30 min at 5000 rpm (Remi Elektrotechnik Ltd. India). 20 μL of filtered supernatant was taken for analysis.
Depends on plasma concentration-time curve parameters, the C max and T max of CLCAE and CLAA were analysed. The pharmacokinetic parameters were successfully interpreted through PK/PD computer software version 4.1, USA, which includes measurement drug plasma concentration from zero to last measured sample (AUC 0 -t) and from zero to infinity (AUC 0-∞) measurement of drug elimination half-life (K 1/2el) and elimination rate constant (K el) clearance (Cl) and volume of distribution (V d). The relative bioavailability (F) of both the formulations was determined using the following formula. F=Total amount of drug absorbed from formulation(Amaxformulation)/Total amount of drug absorbed from pureAAAmaxpureAA×100 F=VdXKelXAUC0−∞formulation/VdXKelXAUC0−∞pureAA×100

[5] = cited from earlier work
[6] = rat p.o; cited from earlier work
[7] = Wistar, single oral dose ~100 mg/kg AA

Structure (SMILES) | In vitro drug release [1] [%] | Percentage of inhibition of DPPH [2] [%] | Amount of drug permeated (ex vivo) [3] [%] | Tmax ([4]; Wistar, 100 mg/kg, single oral dose, read-out: Time of maximum serum concentration) [h] | AUC(0-t) [4, 7] [ng·h/mL] | Cmax [4, 7] [ng/mL] | half-life ([4]; Wistar, single oral dose ~100 mg/kg AA, read-out: Elimination half-life (t1/2el) (converted)) [h] | k el ([4]; Wistar, single oral dose ~100 mg/kg AA, read-out: Elimination rate constant (Kel) (converted)) [s⁻¹] | Maximum serum concentration ([4]; single oral dose) [µg/mL] | Clearance (Cl) ([4]; single oral dose ~100 mg/kg AA) [L h ^−1] | Volume of distribution (Vd) ([4]; single oral dose ~100 mg/kg AA) [L] | Solubility in water [5] | BCS class ([5]; poor aqueous solubility and permeability) | LD50 [6] [mg/kg]
C[C@H]1[C@H](C)CC[C@]2(C(=O)O)CC[C@]3(C)C(=CC[C@@H]4[C@@]5(C)C[C@@H](O)[C@H](O)[C@@](C)(CO)[C@@H]5CC[C@]43C)[C@H]12 [AA, Asiatic acid] | 65.34 | 65.4 ±1.2 | 30.90 | 4 | 40500 ± 1160 | 3430 ± 120 | 1.97 ± 0.1 | 0.000142 | 3.43 ± 0.12 | 0.55 ± 0.002 | 1.62 ± 0.26 | insoluble in water | BCS IV | –
O=C1O[C@H]([C@@H](O)CO)C(O)=C1O [ascorbic acid, reference compound] | – | 90.75 ± 1.45 | – | – | – | – | – | – | – | – | – | – | – | –
ClCCl [dichloromethane] | – | – | – | – | – | – | – | – | – | – | – | – | – | 1200
